Experimental data reported in PubChem BioAssay AID2286 (Southern Research Specialized Biocontainment Screening …, 2010).
Calls of active or inactive are those of the source.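 The calls were made as follows: active = minimum cell viability of 80% or lower across the dose range, counted as toxic; inactive = minimum cell viability above 80%.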

Experiment: viability loss in fusion assay cells – cell-based, MAGI and MAGI-HeLa co-culture, cytotoxicity control for HIV-1 fusion inhibitor project, dose response (AID 2286);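 also: cells exposed to compound for at least 64 h before ATP readout; 100% = median of DMSO vehicle wells with no ATP signal meaning 0%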
Settings: MAGI-CCR5 cells viability, CellTiter-Glo ATP luminescence; for minimum viability: measured here: MAGI minimum viability across doses
[1] = MAGI-HeLa co-culture viability, at 50 µM, stronger effect = lower value
[2] = at 3.13 µM, stronger effect = lower value
[3] = at 12.5 µM, stronger effect = lower value
[4] = at 1.56 µM, stronger effect = lower value
[5] = at 6.25 µM, stronger effect = lower value

Compound | viability [1] [%] | viability (at 50 µM (top of the series)) | minimum viability (at 50 µM, stronger effect = lower value) [%] | other results
O=C(O)c1cc(NC(=O)c2ccc(Br)cc2)cc(NC(=O)c2ccc(Br)cc2)c1 | 118 | 103% (inactive) | – | minimum viability [2]: 99.1%
O=C(O)C(c1ccccc1)N1C(=O)/C(=C\c2ccc(O)c(O)c2)SC1=S (stereo unspecified) | 95.1 | 105% (inactive) | – | minimum viability [3]: 99.2%
O=C(O)CSCC(=O)N(Cc1ccccc1)c1nc(-c2ccccc2)c(-c2ccccc2)s1 | 121 | 89% (inactive) | 89 | –
CCOC(=O)C1=C(C)N=c2s/c(=C\c3ccc(OCC(=O)O)cc3)c(=O)n2C1c1ccc(OC(C)C)cc1 (stereo unspecified) | 105 | – | 65.8 | –
N#Cc1c(-c2ccccc2)nc(SCC(=O)Nc2ccc(OC(F)(F)Cl)cc2)[nH]c1=O | 102 | 96.6% (inactive) | – | minimum viability (at 25 µM, stronger effect = lower value): 84.9%
Cc1c(Cl)cccc1NS(=O)(=O)c1ccc2c(c1)C1C=CCC1C(c1ccc(C(=O)O)cc1)N2 (stereo unspecified) | 121 | 91% (inactive) | – | minimum viability [4]: 87%
Cc1ccc(-c2cc(C(=O)Nc3ccc(S(=O)(=O)Nc4onc(C)c4C)cc3)c3ccccc3n2)cc1 | 89.9 | 98.7% (inactive) | – | minimum viability [2]: 86%
COc1cc(/C=C2/C(=O)NN(c3ccc(Cl)cc3)C2=O)ccc1OC(=O)c1ccco1 | 115 | 96.4% (inactive) | 96.4 | –
O=C1/C(=C2\C(=O)N(Cc3ccc(F)cc3)c3ccccc32)SC(=S)N1CCS(=O)(=O)O | 114 | 99.5% (inactive) | 99.5 | –
CCc1nnc(NS(=O)(=O)c2ccc(NC(=S)NC(=O)/C=C/c3ccc(C(C)C)cc3)cc2)s1 | 117 | 82.2% (inactive) | 82.2 | –
O=C(CN1C(=O)S/C(=C\C=C\c2ccccc2)C1=O)Nc1ccccc1C(=O)O | 103 | 90.4% (inactive) | – | minimum viability [3]: 83.6%
COc1cc(/C=N/NC(=O)C(Cc2c[nH]c3ccccc23)NC(=O)OCc2ccccc2)cc([N+](=O)[O-])c1O (stereo unspecified) | 107 | 95% (inactive) | – | minimum viability (at 25 µM, stronger effect = lower value): 92.5%
O=C(O)COc1ccccc1/C=N/Nc1ccc(S(=O)(=O)Nc2ccc(Cl)cc2)cc1[N+](=O)[O-] | 103 | 99.2% (inactive) | – | minimum viability (at 25 µM, stronger effect = lower value): 90.6%
COc1cc(/C=C2\C(=N)N3N=C(S(C)(=O)=O)SC3=NC2=O)ccc1OC(=O)c1ccco1 | 102 | 101% (inactive) | – | minimum viability [4]: 87.6%
CC1=C(C(=O)OC(C)C)C(c2ccc(Cl)cc2)n2c(s/c(=C\c3ccc(OCC(=O)O)cc3)c2=O)=N1 (stereo unspecified) | 103 | – | 73.5 | –
Cc1cc(/C=c2\sc3nc4ccccc4n3c2=O)c(C)n1-c1ccc(C(=O)O)cc1 | 89 | – | 59.4 | –
O=C(O)c1[nH]c2ccccc2c1C(c1cc(Br)ccc1O)c1c(C(=O)O)[nH]c2ccccc12 | 82 | 85.4% (inactive) | 85.4 | –
O=C(O)CSc1cc(C(=O)c2ccccc2O)cn2c(=O)c3c4c(sc3nc12)CCCC4 | 114 | 93.2% (inactive) | – | minimum viability [3]: 92.1%
O=C(O)CN1C(=O)/C(=C\c2cc(Br)ccc2OCc2ccccc2Cl)SC1=S | 112 | 106% (inactive) | – | minimum viability [2]: 94.6%
COc1cccc(C2C3=C(N=c4s/c(=C\c5ccc(OCC(=O)O)cc5)c(=O)n42)c2ccccc2CC3)c1 (stereo unspecified) | 103 | 90.2% (inactive) | – | minimum viability [3]: 85%
CC(C)S(=O)(=O)C1=NSC2=NC(=O)/C(=C\c3ccc(OC(=O)c4ccco4)cc3)C(=N)N21 | 100 | 103% (inactive) | – | minimum viability [4]: 84.2%
COc1ccc(-c2coc3c(C)c4oc(=O)c(CCC(=O)O)c(C)c4cc23)cc1 | 91.9 | – | 47.8 | –
O=C(NCc1ccccc1)c1ccc2c(=O)[nH]c3c(C(=O)NCC4CCCO4)sc(=S)n3c2c1 (stereo unspecified) | 106 | 86.3% (inactive) | 86.3 | –
COc1cc(/C=C2\C(=N)N3N=C(S(C)(=O)=O)SC3=NC2=O)ccc1OC(=O)c1cccs1 | 109 | 96.7% (inactive) | – | minimum viability (at 0.2 µM, stronger effect = lower value): 86.5%
Cc1ccc(/C=C2\SC(=S)N(CCCC(=O)Nc3ccccc3C(=O)O)C2=O)cc1 | 127 | – | 63.9 | –
COc1ccc(/C=C2/SC(=O)N(CCCCCC(=O)Nc3ccccc3C(=O)O)C2=S)cc1 | 122 | – | 66.9 | –

Compound | viability [1] [%] | viability (at 50 µM (top of the series)) | minimum viability (at 50 µM, stronger effect = lower value) [%] | other results
CCc1ccc(N=C2NC(=O)/C(=C/c3cc(Br)c(OCC(=O)O)c(OC)c3)S2)cc1 | 94.3 | 82.9% (inactive) | 82.9 | –
COc1ccc(C(=O)Nc2ccccc2C(=O)O)cc1NC(=O)C(c1ccccc1)c1ccccc1 | 116 | 99.7% (inactive) | – | minimum viability [5]: 89.1%
Cc1ccc(S(=O)(=O)/N=C2/NC(=O)/C(=C/c3cc([N+](=O)[O-])ccc3O)S2)cc1 | 99.3 | 86% (inactive) | 86 | –
O=C(O)CN1C(=O)/C(=C\c2cc(Br)ccc2OCc2ccccc2F)SC1=S | 113 | 101% (inactive) | 101 | –
CCc1nnc(NS(=O)(=O)c2ccc(NC(=S)NC(=O)/C=C/c3ccc(F)cc3)cc2)s1 | 115 | 89.6% (inactive) | – | minimum viability [3]: 83.8%
COc1cc(/C=N/NS(=O)(=O)c2ccc3ccccc3c2)ccc1OCc1ccc(C(=O)O)cc1 | 115 | 93.7% (inactive) | – | minimum viability (at 25 µM, stronger effect = lower value): 85.7%
NS(=O)(=O)c1cc(C(=O)NC2CCSc3ccccc32)ccc1Cl (stereo unspecified) | 103 | 84.3% (inactive) | 84.3 | –
CSc1ccc(C(c2c(C(=O)O)[nH]c3ccccc23)c2c(C(=O)O)[nH]c3ccccc23)cc1 | 89.8 | 92.8% (inactive) | – | minimum viability [5]: 90.5%
CC(C)CS(=O)(=O)C1=NN2C(=N)/C(=C\c3ccc(OC(=O)c4ccco4)cc3)C(=O)N=C2S1 | 104 | 96.6% (inactive) | – | minimum viability [3]: 85.6%
COc1cc(OC)c2c(O)c3c(c(-c4c5c(c(O)c6c(OC)cc(OC)cc46)CO[C@@H](C)[C@H]5O)c2c1)[C@H](O)[C@H](C)OC3 | 102 | 103% (inactive) | – | minimum viability [3]: 88.2%
COc1ccc(C(=O)Nc2ccc(/C(C)=N/NC(=O)c3ccncc3)cc2)cc1 | 121 | 88.5% (inactive) | 88.5 | –
O=C(O)c1cccc(N/N=C/c2cc(Br)cc(Br)c2O)c1 | 132 | 127% (inactive) | – | minimum viability [2]: 90.9%
COc1cccc(NS(=O)(=O)c2ccc3c(c2)C2C=CCC2C(c2ccc(C(=O)O)cc2)N3)c1 (stereo unspecified) | 120 | 108% (inactive) | – | minimum viability [4]: 88.6%
CS(=O)(=O)C1=NSC2=NC(=O)/C(=C\c3ccc(OC(=O)c4ccco4)c(Br)c3)C(=N)N21 | 106 | 94.8% (inactive) | 94.8 | –
CCCCCCc1c(C)c2ccc(OCC(=O)N[C@@H](Cc3ccccc3)C(=O)O)cc2oc1=O | 101 | 96.7% (inactive) | – | minimum viability [2]: 90.1%
O=C(COc1ccc(Cl)cc1Cl)Nc1ccc(C(=O)Nc2ccccc2C(=O)O)cc1 | 92.6 | – | 71.9 | –
CCOC(=O)C1=C(C)N=c2s/c(=C\c3ccc(OCC(=O)O)c(OC)c3)c(=O)n2C1c1ccc(OC)cc1 (stereo unspecified) | 107 | 97.1% (inactive) | – | minimum viability [4]: 88%
O=C(O)C1Nc2c(cccc2C(F)(F)F)C2C=CCC12 (stereo unspecified) | 124 | 106% (inactive) | – | minimum viability [3]: 86.1%
O=C(CCN1C(=O)/C(=C\C=C\c2ccccc2)SC1=S)Nc1ccccc1C(=O)O | 121 | – | 74.5 | –
Cc1ccc(NS(=O)(=O)c2ccc(N/N=C/c3ccccc3OCC(=O)O)c([N+](=O)[O-])c2)c(C)c1 | 101 | 108% (inactive) | – | minimum viability (at 0.39 µM, stronger effect = lower value): 88.5%
Cc1cc(Cl)ccc1OC(C)C(=O)Nc1ccc(S(=O)(=O)Nc2cnc3ccccc3n2)cc1 (stereo unspecified) | 89.2 | – | 72.9 | –
O=C(COc1ccc2ccccc2c1)Nc1cccc(C(=O)Nc2ccccc2C(=O)O)c1 | 101 | 83.3% (inactive) | 83.3 | –
CC1=C(C#N)C(=O)NC(=O)/C1=C\c1ccc(-c2cc(C)c(C)cc2[N+](=O)[O-])o1 | 107 | 86.5% (inactive) | – | minimum viability [3]: 83.3%
O=C1NC(=O)/C(=C/c2ccc(-c3cc(C(=O)O)ccc3Cl)o2)S1 | 105 | 91% (inactive) | – | minimum viability [5]: 88.5%
O=C(Nc1ccc(C(=O)O)cc1)/C(=C\C=C\c1ccccc1)NC(=O)c1cccc(Br)c1 | 85.1 | 89.9% (inactive) | – | minimum viability [5]: 83.2%
COc1cc(/C=C2\SC(=O)N(c3ccccc3Cl)C2=O)cc([N+](=O)[O-])c1O | 85.2 | – | 50 | –
